Experimental data from patent US11464802B2, “3-substituted piperidine compounds for Cbl-b inhibition, and use thereof” (Nurix Therapeutics, Inc., priority 2019, dated 2022).

Legend:
Cbl-b [1] = biological target: T1, Cbl-b (Homo sapiens (Human), UniProt Q13191); experiment: Cbl-b displacement assay (Cbl-b inhibition assay), TR-FRET probe displacement, Biological Example 1; assay type: binding
How it was run: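 N-terminally Avitagged, biotinylated truncated Cbl-b (0.5 nM "High" or 0.125 nM "Low", final) pre-incubated 1 h at room temperature with compound (1% DMSO) in HEPES pH 7.5 buffer. Then 150 nM BODIPY FL probe (~EC40) plus 2 nM streptavidin-terbium for 1 h; TR-FRET read at 520/620 nm.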

[2] = system: primary human total T-cells; experiment: Primary human total T-cell activation: IL-2 secretion, Biological Example 2; assay type: cell-based; conditions: 48 hours, fold change over baseline; for fold induction at 0.3 µM: inhibitor 0.3 μM; for fold induction at 1 µM: inhibitor 1 μM; for fold induction at 3 µM: inhibitor 3 μM
[3] = system: primary human total T-cells; experiment: Primary human total T-cell activation: CD25 surface staining, Biological Example 2; assay type: cell-based; conditions: 48 hours, fold change over baseline; for fold induction at 0.3 µM: inhibitor 0.3 μM; for fold induction at 1 µM: inhibitor 1 μM; for fold induction at 3 µM: inhibitor 3 μM
Cbl-b [4] = biological target: T1, Cbl-b; experiment: Cbl-b displacement assay (Cbl-b inhibition assay), Biological Example 8; assay type: binding; conditions: Table 8-1
Protocol: (§1) Candidate compounds were evaluated for their ability to bind and inhibit Cbl-b, an E3 ubiquitin-protein ligase, as evidenced by their ability to displace a fluorophore-labeled probe bound to Cbl-b.
(§2) The ability of candidate compounds to displace a known inhibitor and thereby inhibit Cbl-b activity was measured by monitoring the interaction of Cbl-b with a fluorophore-labeled probe in the presence of the candidate compound. A truncated variant of Cbl-b (UniProt number Q13191) containing residues 36-427 and an Avitag at its N-terminus was co-expressed with BirA biotin ligase and purified using a standard protocol (see Dou et al., Nature Structural and Molecular Biology 8: 982-987, 2013; Avidity LLC).
(§3) Fluorescently-labeled inhibitor probe was synthesized and tagged with BODIPY FL. Cbl-b displacement assays were performed in a 384-well plate at room temperature in a 10 μl reaction volume by pre-incubating 0.5 nM Cbl-b or 0.125 nM Cbl-b (final concentration, indicated as “High” and “Low”, respectively) in an assay buffer containing 20 mM HEPES pH 7.5, 150 mM NaCl, 0.01% Triton X-100, 0.01% BSA and 0.5 mM TCEP in the presence of a candidate compound in 1% DMSO (final concentration) for 1 hour. After incubation in the presence of the candidate compound, the plate was incubated for an additional 1 hour in the presence of an approximate EC40 binding saturation consisting of 150 nM fluorescently-labeled inhibitor probe and 2 nM Streptavidin-Terbium (Cisbio) (final concentrations). Following the 1 hour incubation, the plates were read for TR-FRET signal at 520/620 nM using an Envision plate reader (Perkin Elmer).
(§4) The resulting data for the Cbl-b activity assays were analyzed using standard methods to determine the IC50 values for the tested compounds.

[5] = system: primary human total T-cells; experiment: Primary human total T-cell activation: IL-2 secretion, Biological Example 9; assay type: cell-based; conditions: 48 hours, fold change over baseline; for fold induction at 0.3 µM: inhibitor 0.3 μM; for fold induction at 0.3 µM / fold induction at 3 µM: Table 9-1; for fold induction at 1 µM: inhibitor 1 μM; for fold induction at 3 µM: inhibitor 3 μM
[6] = system: primary human total T-cells; experiment: Primary human total T-cell activation: CD25 surface staining, Biological Example 9; assay type: cell-based; conditions: 48 hours, fold change over baseline; for fold induction at 0.3 µM: inhibitor 0.3 μM; for fold induction at 0.3 µM / fold induction at 3 µM: Table 9-1; for fold induction at 1 µM: inhibitor 1 μM; for fold induction at 3 µM: inhibitor 3 μM
Cbl-b [7] = biological target: T1, Cbl-b; experiment: Cbl-b displacement assay (Cbl-b inhibition assay), Biological Example 12; assay type: binding; conditions: Table 12-1
Protocol: as §1, §2, §3, §4

[8] = system: primary human total T-cells; experiment: Primary human total T-cell activation: IL-2 secretion, Biological Example 13; assay type: cell-based; conditions: 48 hours, fold change over baseline; for fold induction at 0.3 µM: inhibitor 0.3 μM; for fold induction at 0.3 µM / fold induction at 3 µM: Table 13-1; for fold induction at 1 µM: inhibitor 1 μM; for fold induction at 3 µM: inhibitor 3 μM
[9] = system: primary human total T-cells; experiment: Primary human total T-cell activation: CD25 surface staining, Biological Example 13; assay type: cell-based; conditions: 48 hours, fold change over baseline; for fold induction at 0.3 µM: inhibitor 0.3 μM; for fold induction at 0.3 µM / fold induction at 3 µM: Table 13-1; for fold induction at 1 µM: inhibitor 1 μM; for fold induction at 3 µM: inhibitor 3 μM
[10] = 0.5 nM Cbl-b final concentration (High), read-out: Cbl-b activity IC50 (High)
[11] = Cbl-b concentration (High or Low) not given, read-out: IC50 values in the Cbl-b inhibition assay of Biological Example 1
[12] = anti-CD3/anti-CD28 co-stimulation
[13] = anti-CD3/anti-CD28 co-stimulation, read-out: IL-2 secretion CD3/CD28 1 μM
[14] = anti-CD3 alone, read-out: IL-2 secretion CD3 1 μM
[15] = anti-CD3/anti-CD28 co-stimulation, read-out: CD25 staining CD3/CD28 1 μM
[16] = anti-CD3 alone, read-out: CD25 staining CD3 1 μM
[17] = 0.5 nM Cbl-b final concentration (High), read-out: Cbl-b IC50 (High)
[18] = anti-CD3/anti-CD28 co-stimulation, Table 9-1, read-out: IL-2 secretion CD3/CD28 1 μM
[19] = anti-CD3 alone, Table 9-1, read-out: IL-2 secretion CD3 1 μM
[20] = anti-CD3/anti-CD28 co-stimulation, Table 9-1, read-out: CD25 staining CD3/CD28 1 μM
[21] = anti-CD3 alone, Table 9-1, read-out: CD25 staining CD3 1 μM
[22] = anti-CD3/anti-CD28 co-stimulation, Table 13-1, read-out: IL-2 secretion CD3/CD28 1 μM
[23] = anti-CD3 alone, Table 13-1, read-out: IL-2 secretion CD3 1 μM
[24] = anti-CD3/anti-CD28 co-stimulation, Table 13-1, read-out: CD25 staining CD3/CD28 1 μM
[25] = anti-CD3 alone, Table 13-1, read-out: CD25 staining CD3 1 μM
[26] = 0.125 nM Cbl-b final concentration (Low), read-out: Cbl-b IC50 (Low)

T1 sequence (Q13191 36-427): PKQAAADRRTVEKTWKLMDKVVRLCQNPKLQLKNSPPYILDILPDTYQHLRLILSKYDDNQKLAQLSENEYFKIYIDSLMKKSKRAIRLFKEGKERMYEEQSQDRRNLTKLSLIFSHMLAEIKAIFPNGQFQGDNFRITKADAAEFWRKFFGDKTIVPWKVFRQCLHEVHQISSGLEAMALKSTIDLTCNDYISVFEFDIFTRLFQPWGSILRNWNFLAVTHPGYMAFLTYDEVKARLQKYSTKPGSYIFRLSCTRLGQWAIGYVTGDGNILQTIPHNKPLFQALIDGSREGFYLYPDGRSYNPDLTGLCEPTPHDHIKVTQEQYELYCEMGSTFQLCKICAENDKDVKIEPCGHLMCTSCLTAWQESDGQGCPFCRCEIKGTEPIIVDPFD

| Structure (SMILES) | IC50 (Cbl-b [1]; [11]) [nM] | fold induction at 0.3 µM [2, 12] | fold induction at 1 µM [2, 13] | fold induction at 1 µM [2, 14] | fold induction at 3 µM ([2]; anti-CD3 alone) | fold induction at 0.3 µM [3, 12] | fold induction at 1 µM [3, 15] | fold induction at 1 µM [3, 16] | fold induction at 3 µM ([3]; anti-CD3 alone) | fold induction at 0.3 µM [5, 12] | fold induction at 1 µM [5, 18] | fold induction at 1 µM [5, 19] | fold induction at 3 µM ([5]; anti-CD3 alone) | fold induction at 0.3 µM [6, 12] | fold induction at 1 µM [6, 20] | fold induction at 1 µM [6, 21] | fold induction at 3 µM ([6]; anti-CD3 alone) | fold induction at 0.3 µM [8, 12] | fold induction at 1 µM [8, 22] | fold induction at 1 µM [8, 23] | further results |
| --- | --- | --- | --- | --- | --- | --- | --- | --- | --- | --- | --- | --- | --- | --- | --- | --- | --- | --- | --- | --- | --- |
| C[C@H]1CCCN(Cc2cc3c(c(C(F)(F)F)c2)CN(c2cccc(C4(Cc5nncn5C)COC4)c2)C3=O)C1 [Compound 1, (S)-2-(3-(3-((4-methyl-4H-1,2,4-triazol-3-yl)methyl)oxetan-3-yl)phenyl)-6-((3-methylpiperidin-1-yl)methyl)-4-(trifluoromethyl)isoindolin-1-one] | < 1 | > 15 | > 15 | > 0.66 | > 0.66 | < 1.24 | < 1.24 | < 1.04 | < 1.04 | > 15 | > 15 | > 0.66 | > 0.66 | > 1.39 | > 1.39 | > 1.14 | > 1.14 | > 15 | > 15 | > 0.66 | IC50 (Cbl-b [1]; [10]): < 1 nM; IC50 (Cbl-b [4]; [17]): < 1 nM; IC50 (Cbl-b [7]; [17]): < 1 nM; fold induction at 3 µM ([8]; anti-CD3 alone): > 0.66; fold induction at 0.3 µM [9, 12]: > 1.39; fold induction at 1 µM [9, 24]: > 1.39; fold induction at 1 µM [9, 25]: > 1.14; fold induction at 3 µM ([9]; anti-CD3 alone): > 1.14 |
| C[C@@H]1C[C@H](C)CN(Cc2cc3c(c(C(F)(F)F)c2)CN(c2cccc(C4(Cc5nncn5C)COC4)c2)C3=O)C1 [Compound 2, 6-{[(3R,5S)-3,5-dimethylpiperidin-1-yl]methyl}-2-(3-{3-[(4-methyl-1,2,4-triazol-3-yl)methyl]oxetan-3-yl}phenyl)-4-(trifluoromethyl)-3H-isoindol-1-one] | < 1 | > 15 | > 15 | 0.34 to 0.66 | > 0.66 | < 1.24 | < 1.24 | 1.05 to 1.14 | 1.05 to 1.14 | 10 to 15 | 10 to 15 | 0.34 to 0.66 | > 0.66 | < 1.24 | < 1.24 | 1.05 to 1.14 | 1.05 to 1.14 | 11 to 15 | 11 to 15 | 0.34 to 0.66 | IC50 (Cbl-b [1]; [10]): < 1 nM; IC50 (Cbl-b [4]; [17]): < 1 nM; IC50 (Cbl-b [7]; [17]): < 1 nM; fold induction at 3 µM ([8]; anti-CD3 alone): > 0.66; fold induction at 0.3 µM [9, 12]: < 1.24; fold induction at 1 µM [9, 24]: < 1.24; fold induction at 1 µM [9, 25]: 1.05 to 1.14; fold induction at 3 µM ([9]; anti-CD3 alone): 1.05 to 1.14 |
| CCOc1cc(C2(Cc3nncn3C)COC2)cc(N2Cc3c(cc(CN4CCC(F)(F)[C@H](C)C4)cc3C(F)(F)F)C2=O)n1 [Compound 28, (R)-6-((4,4-difluoro-3-methylpiperidin-1-yl)methyl)-2-(6-ethoxy-4-(3-((4-methyl-4H-1,2,4-triazol-3-yl)methyl)oxetan-3-yl)pyridin-2-yl)-4-(trifluoromethyl)isoindolin-1-one] | 1 to 5 | > 15 | > 15 | 0.34 to 0.66 | 0.34 to 0.66 | 1.25 to 1.39 | < 1.24 | 1.05 to 1.14 | < 1.04 | 10 to 15 | 10 to 15 | 0.34 to 0.66 | 0.34 to 0.66 | 1.25 to 1.39 | < 1.24 | 1.05 to 1.14 | < 1.04 | 11 to 15 | 11 to 15 | 0.34 to 0.66 | IC50 (Cbl-b [1]; [10]): 1 to 5 nM; IC50 (Cbl-b [4]; [17]): 1 to 5 nM; IC50 (Cbl-b [7]; [17]): 1 to 5 nM; fold induction at 3 µM ([8]; anti-CD3 alone): 0.34 to 0.66; fold induction at 0.3 µM [9, 12]: 1.25 to 1.39; fold induction at 1 µM [9, 24]: < 1.24; fold induction at 1 µM [9, 25]: 1.05 to 1.14; fold induction at 3 µM ([9]; anti-CD3 alone): < 1.04 |
| C[C@@H]1CN(Cc2cc(C(=O)Nc3cccc(C4(Cc5nncn5C)COC4)c3)nc(C3CC3)c2)CCC1(F)F [Compound 32, 6-cyclopropyl-4-{[(3R)-4,4-difluoro-3-methylpiperidin-1-yl]methyl}-N-(3-{3-[(4-methyl-1,2,4-triazol-3-yl)methyl]oxetan-3-yl}phenyl)pyridine-2-carboxamide] | < 1 | > 15 | > 15 | 0.34 to 0.66 | 0.34 to 0.66 | < 1.24 | < 1.24 | 1.05 to 1.14 | 1.05 to 1.14 | > 15 | > 15 | > 0.66 | > 0.66 | > 1.39 | > 1.39 | > 1.14 | > 1.14 | > 15 | > 15 | > 0.66 | IC50 (Cbl-b [1]; [10]): < 1 nM; IC50 (Cbl-b [4]; [17]): < 1 nM; IC50 (Cbl-b [7]; [17]): < 1 nM; fold induction at 3 µM ([8]; anti-CD3 alone): > 0.66; fold induction at 0.3 µM [9, 12]: > 1.39; fold induction at 1 µM [9, 24]: > 1.39; fold induction at 1 µM [9, 25]: > 1.14; fold induction at 3 µM ([9]; anti-CD3 alone): > 1.14 |
| CCOc1cc(C2(Cc3nncn3C)COC2)cc(N2Cc3c(cc(CN4CCC[C@H](C)C4)cc3C(F)(F)F)C2=O)n1 [Compound 39, 2-(6-ethoxy-4-{3-[(4-methyl-1,2,4-triazol-3-yl)methyl]oxetan-3-yl}pyridin-2-yl)-6-{[(3S)-3-methylpiperidin-1-yl]methyl}-4-(trifluoromethyl)-3H-isoindol-1-one] | < 1 | > 15 | > 15 | > 0.66 | > 0.66 | > 1.39 | > 1.39 | > 1.14 | > 1.14 | > 15 | > 15 | > 0.66 | > 0.66 | > 1.39 | > 1.39 | > 1.14 | > 1.14 | > 15 | > 15 | > 0.66 | IC50 (Cbl-b [1]; 0.125 nM Cbl-b final concentration (Low), read-out: Cbl-b activity IC50 (Low)): < 1 nM; IC50 (Cbl-b [4]; [26]): < 1 nM; IC50 (Cbl-b [7]; [26]): < 1 nM; fold induction at 3 µM ([8]; anti-CD3 alone): > 0.66; fold induction at 0.3 µM [9, 12]: > 1.39; fold induction at 1 µM [9, 24]: > 1.39; fold induction at 1 µM [9, 25]: > 1.14; fold induction at 3 µM ([9]; anti-CD3 alone): > 1.14 |
